Results from BigSolDB 2.1.

COC(=O)[C@H](N)c1ccc(O)cc1
Conditions | solubility (mole fraction)
in ethanol, 283.15 K | 0.00129
in ethanol, 288.13 K | 0.00179
in ethanol, 293.15 K | 0.0024
in ethanol, 298.17 K | 0.00318
in ethanol, 303.15 K | 0.00411
in ethanol, 308.2 K | 0.00522
in ethanol, 313.15 K | 0.00652
in ethanol, 318.1 K | 0.008
in ethanol, 323.15 K | 0.00968
in ethyl acetate, 283.15 K | 0.000154
in ethyl acetate, 288.17 K | 0.00029
in ethyl acetate, 293.15 K | 0.000479
in ethyl acetate, 298.15 K | 0.000761
in ethyl acetate, 303.16 K | 0.00113
in ethyl acetate, 308.15 K | 0.00158
in ethyl acetate, 313.15 K | 0.00209
in ethyl acetate, 318.18 K | 0.00261
in ethyl acetate, 323.15 K | 0.00311
in isopropanol, 283.15 K | 0.000167
in isopropanol, 288.2 K | 0.000327
in isopropanol, 293.14 K | 0.000576
in isopropanol, 298.15 K | 0.000976
in isopropanol, 303.15 K | 0.00163
in isopropanol, 308.2 K | 0.00258
in isopropanol, 313.2 K | 0.00368
in isopropanol, 318.15 K | 0.00517
in isopropanol, 323.15 K | 0.00677
in isopropyl acetate, 283.17 K | 4.68e-05
in isopropyl acetate, 288.15 K | 8.53e-05
in isopropyl acetate, 293.14 K | 0.000146
in isopropyl acetate, 298.15 K | 0.000237
in isopropyl acetate, 303.13 K | 0.00037
in isopropyl acetate, 308.15 K | 0.000555
in isopropyl acetate, 313.15 K | 0.0008
in isopropyl acetate, 318.15 K | 0.00111
in isopropyl acetate, 323.15 K | 0.00149
in methanol, 283.1 K | 0.00221
in methanol, 288.15 K | 0.00273
in methanol, 293.24 K | 0.00338
in methanol, 298.1 K | 0.00415
in methanol, 303.15 K | 0.00505
in methanol, 308.2 K | 0.00611
in methanol, 313.2 K | 0.00732
in methanol, 318.15 K | 0.00872
in methanol, 323.2 K | 0.0103
in methyl acetate, 283.12 K | 0.000417
in methyl acetate, 288.2 K | 0.000578
in methyl acetate, 293.17 K | 0.000914
in methyl acetate, 298.14 K | 0.00136
in methyl acetate, 303.15 K | 0.0019
in methyl acetate, 308.15 K | 0.00253
in methyl acetate, 313.15 K | 0.0032
in methyl acetate, 318.15 K | 0.00385
in methyl acetate, 323.15 K | 0.00444
in n-butanol, 283.15 K | 0.000489
in n-butanol, 288.2 K | 0.000737
in n-butanol, 293.17 K | 0.00114
in n-butanol, 298.18 K | 0.00164
in n-butanol, 303.15 K | 0.00224
in n-butanol, 308.2 K | 0.00308
in n-butanol, 313.15 K | 0.00418
in n-butanol, 318.15 K | 0.00561
in n-butanol, 323.15 K | 0.00733
in n-butyl acetate, 283.1 K | 5.67e-05
in n-butyl acetate, 288.15 K | 8.11e-05
in n-butyl acetate, 293.15 K | 0.000116
in n-butyl acetate, 298.17 K | 0.000165
in n-butyl acetate, 303.15 K | 0.000233
in n-butyl acetate, 308.15 K | 0.000326
in n-butyl acetate, 313.14 K | 0.000456
in n-butyl acetate, 318.15 K | 0.000626
in n-butyl acetate, 323.12 K | 0.000873
in n-pentanol, 283.14 K | 6.94e-05
in n-pentanol, 288.2 K | 0.000156
in n-pentanol, 293.15 K | 0.000322
in n-pentanol, 298.15 K | 0.000606
in n-pentanol, 303.15 K | 0.00107
in n-pentanol, 308.14 K | 0.00177
in n-pentanol, 313.15 K | 0.00273
in n-pentanol, 318.15 K | 0.00399
in n-pentanol, 323.15 K | 0.00549
in n-propanol, 283.13 K | 0.000939
in n-propanol, 288.2 K | 0.00127
in n-propanol, 293.15 K | 0.00173
in n-propanol, 298.13 K | 0.00226
in n-propanol, 303.15 K | 0.00295
in n-propanol, 308.15 K | 0.00382
in n-propanol, 313.15 K | 0.0049
in n-propanol, 318.2 K | 0.00624
in n-propanol, 323.15 K | 0.00787
in n-propyl acetate, 283.15 K | 6.95e-05
in n-propyl acetate, 288.14 K | 0.000135
in n-propyl acetate, 293.17 K | 0.000242
in n-propyl acetate, 298.2 K | 0.000415
in n-propyl acetate, 303.15 K | 0.000663
in n-propyl acetate, 308.15 K | 0.00102
in n-propyl acetate, 313.15 K | 0.0015
in n-propyl acetate, 318.15 K | 0.00203
in n-propyl acetate, 323.15 K | 0.00275
in water, 283.13 K | 1.9e-05
in water, 288.16 K | 2.8e-05
in water, 293.15 K | 4.81e-05
in water, 298.15 K | 7.86e-05
in water, 303.18 K | 0.000123
in water, 308.15 K | 0.000177
in water, 313.2 K | 0.000232
in water, 318.15 K | 0.0003
in water, 323.15 K | 0.00037
